Data reported in article PMC3017850, “Significance of Cuscutain, a cysteine protease from Cuscuta reflexa, in host-parasite interactions” (BMC Plant Biology, 2010).
Peptide text beside a SMILES is read from it. * marks the point of attachment. pNA = O=[N+]([O-])c1ccc(N*)cc1; Cbz = O=C(OCc1ccccc1)*

System: cuscutain
Assay: colorimetric release of para-nitroaniline at […] nm; Hanes-Woolf plot
Format: biochemical, Cuscuta reflexa
Conditions: pH 7.5; 30 °C (50 mM Tris, 300 mM NaCl) or 37 °C (0.1 M Na-citrate, 20% ethanol), both printed

Compound: N=C(N)NCCC[C@H](NC(=O)[C@H](Cc1ccccc1)NC(=O)OCc1ccccc1)C(=O)Nc1ccc([N+](=O)[O-])cc1 [Cbz-Phe-Arg-pNA] (Cbz-Phe-Arg-pNA)
- Km: 393 ± 20 µM
